# Laboratory results reported in patent publication US8642594B2, “Substituted thieno[2,3-d]pyrimidines as HSP90 inhibitors” (Vernalis (R&D) Limited, priority 2003, dated 2014).
# Biological target: T1, Human full-length Hsp90 (Homo sapiens, UniProt P08238)
# T1 construct: E. coli expressed human full-length HSP90 protein, purified >95%; made in house; host or cells: E. coli
# Experiment: Fluorescence polarization assay (competitive binding to HSP90, probe RBT0045864-FAM)
# Conditions: not given
# Experimental: Fluorescence Polarization Assay
# Fluorescence polarization {also known as fluorescence anisotropy} measures the rotation of a fluorescing species in solution, where the larger molecule the more polarized the fluorescence emission. When the fluorophore is excited with polarized light, the emitted light is also polarized. The molecular size is proportional to the polarization of the fluorescence emission.
# The fluoroscein-labelled probe—RBT0045864-FAM—
# Test compound is added to the assay plate, left to equilibrate and the anisotropy measured again. Any change in anisotropy is due to competitive binding of compound to HSP90, thereby releasing probe.
# Stored at room temperature. • 3) BSA (bovine serum albumen) 10 mg/ml (New England Biolabs #B9001S) • 4) 20 mM probe in 100% DMSO stock concentration. Stored in the dark at RT. Working concentration is 200 nM diluted in AR water and stored at 4° C. […] Protocol • 1) Add 100 μl 1× buffer to wells 11A and 12A (=FP BLNK) • 2) Prepare assay mix—all reagents are kept on ice with a lid on the bucket as the probe is light-sensitive.
# This gives 2.5 mM {50×} stock cpd—assuming cpds 20 mM. • 4) Repeat for wells A2 to A10. Control in columns 11 and 12. • 5) Transfer 5 μl from row A to row B—not column 12. Mix well. • 6) Transfer 5 μl from row B to row C. […] Add 2 μl of 100 mM standard cpd to wells B12-H12 {is positive control} • 13) The Z′ factor is calculated from zero controls and positive wells.
# T1 sequence (P08238 whole entry): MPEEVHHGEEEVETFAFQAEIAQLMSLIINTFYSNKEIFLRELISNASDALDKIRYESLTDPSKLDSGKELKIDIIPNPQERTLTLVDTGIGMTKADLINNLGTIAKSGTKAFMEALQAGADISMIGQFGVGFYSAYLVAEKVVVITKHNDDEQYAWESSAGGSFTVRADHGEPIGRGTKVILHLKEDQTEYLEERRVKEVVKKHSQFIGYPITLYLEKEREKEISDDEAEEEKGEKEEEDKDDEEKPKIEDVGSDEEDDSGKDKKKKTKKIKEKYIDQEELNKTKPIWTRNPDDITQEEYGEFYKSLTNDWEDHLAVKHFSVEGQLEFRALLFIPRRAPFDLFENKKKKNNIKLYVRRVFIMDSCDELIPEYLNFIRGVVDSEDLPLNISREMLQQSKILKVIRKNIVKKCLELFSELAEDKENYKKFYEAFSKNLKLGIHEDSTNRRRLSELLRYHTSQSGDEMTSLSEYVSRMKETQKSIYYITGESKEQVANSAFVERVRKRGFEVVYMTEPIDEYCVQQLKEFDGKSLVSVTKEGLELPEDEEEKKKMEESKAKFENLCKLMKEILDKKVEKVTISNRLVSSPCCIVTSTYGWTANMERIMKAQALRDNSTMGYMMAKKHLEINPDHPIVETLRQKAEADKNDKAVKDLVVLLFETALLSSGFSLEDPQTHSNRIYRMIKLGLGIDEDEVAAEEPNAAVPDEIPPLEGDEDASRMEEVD
row,SMILES,IC50 [µM]
1,CCNC(=O)c1cc2c(-c3ccc(C)cc3C)nc(N)nc2s1 [Example 80],< 10
2,CCNC(=O)c1cc2c(-c3cc(OCC(N)=O)c(Cl)cc3Cl)nc(N)nc2s1 [Example 267],< 10
3,CCNC(=O)c1cc2c(-c3cc(OCCN4CCCC4)c(Cl)cc3Cl)nc(N)nc2s1 [Example 253],< 10
4,CCNC(=O)c1cc2c(-c3ccc(Cl)cc3)nc(N)nc2s1 [Example 173],< 10
5,"CCNC(=O)c1cc2c(-c3cc(OCCN(CC)CC)c(Cl)cc3Cl)nc(N)nc2s1 [Example 235, 2-Amino-4-[2,4-dichloro-5-(2-diethylamino-ethoxy)-phenyl]-thieno[2,3-d]pyrimidine-6-carboxylic acid ethyl amide]",< 10

# Same assay, conditions: fluorescence polarization assay, activity range; read-out: Hsp90 FP IC50
row,IC50 [µM],SMILES
1,< 10,Cc1ccc(-c2nc(N)nc3sc(C(=O)NCCCO)cc23)c(C)c1 [Example 85]
2,> 10,CCOC(=O)c1cc2c(-c3c(Cl)cccc3OC)nc(N)nc2s1 [Example 147]
3,> 10,CN(C)CCCNC(=O)c1cc2c(-c3ccccc3)nc(N)nc2s1 [Example 45]
4,< 10,CCNC(=O)c1cc2c(-c3cc(OCCNC4CCCCC4)c(Cl)cc3Cl)nc(N)nc2s1 [Example 245]
5,< 10,CCOC(=O)c1cc2c(C(C#N)c3ccccc3)nc(N)nc2s1 (stereo not drawn) [Example 317]
6,< 10,CCNC(=O)c1ccc(C)c(-c2nc(N)nc3sc(C(=O)NCC)cc23)c1 [Example 180]
7,< 10,Nc1nc(-c2ccc(Cl)cc2Cl)c2cc(C(=O)NCC3CCCO3)sc2n1 (stereo not drawn) [Example 132]
8,< 10,CCNC(=O)c1cc2c(-c3cc(CNC4CCCC4)ccc3C)nc(N)nc2s1 [Example 199]
9,< 10,CCOC(=O)c1cc2c(C(=O)c3ccc(OC)c(F)c3)nc(N)nc2s1 [Example 314]
10,< 10,CCOC(=O)c1cc2c(-c3ccc(OCC)cc3Cl)nc(N)nc2s1 [Example 78]
11,< 10,Nc1nc(-c2ccc(Cl)cc2Cl)c2cc(C(=O)Nc3cccc(Cl)c3)sc2n1 [Example 109]
12,> 10,CCOC(=O)c1sc2nc(N)nc(-c3ccccc3)c2c1Br [Example 99]
13,> 10,COC(=O)c1cc2c(Nc3ccccc3)nc(N)nc2s1 [Example 21]
14,< 10,Nc1nc(-c2ccc(Cl)cc2Cl)c2cc(C(=O)NCc3ccc(S(N)(=O)=O)cc3)sc2n1 [Example 116]
15,< 10,CCOC(=O)c1cc2c(-c3ccccc3Br)nc(N)nc2s1 [Example 97]
16,< 10,Nc1nc(-c2ccc(Cl)cc2Cl)c2cc(C(=O)NCc3cccs3)sc2n1 [Example 124]
17,< 10,CCNC(=O)c1cc2c(C(C)c3ccccc3)nc(N)nc2s1 (stereo not drawn) [Example 287]
18,< 10,CCCNC(=O)c1cc2c(-c3ccc(C)cc3C)nc(N)nc2s1 [Example 61]
19,< 10,CCNC(=O)c1cc2c(-c3cc(OCC4CCCO4)c(Cl)cc3Cl)nc(N)nc2s1 (stereo not drawn) [Example 262]
20,< 10,CCOC(=O)c1cc2c(C(=O)c3ccccc3)nc(N)nc2s1 [Example 296]

row,IC50 [µM],SMILES
1,< 10,CCOC(=O)c1cc2c(C=Cc3ccccc3)nc(N)nc2s1 [275 Step 1]
2,< 10,CCNC(=O)c1cc2c(-c3ccc(Cl)cc3C)nc(N)nc2s1 [Example 151]
3,< 10,CC(C)NC(=O)c1cc2c(-c3cc(O)c(Cl)cc3Cl)nc(N)nc2s1 [Example 248]
4,< 10,CCNC(=O)c1cc2c(-c3c(C)cccc3C)nc(N)nc2s1 [Example 73]
5,> 10,CCOC(=O)c1cc2c(/C=C/C(C)(C)C)nc(N)nc2s1 [Example 289]
6,< 10,C=C(c1ccccc1)c1nc(N)nc2sc(C(=O)OCC)cc12 [Example 276]
7,< 10,CCNC(=O)c1cc2c(-c3ccc(CC)cc3Cl)nc(N)nc2s1 [Example 177]
8,> 10,CCOC(=O)c1cc2c(-c3csc4ccccc34)nc(N)nc2s1 [Example 290]
9,< 10,CCOC(=O)c1cc2c(-c3ccc(OCC#N)cc3C)nc(N)nc2s1 [Example 188]
10,< 10,CCNC(=O)c1cc2c(-c3cc(OCC(C)CN(C)C)c(Cl)cc3Cl)nc(N)nc2s1 (stereo not drawn) [Example 256]
11,< 10,Nc1nc(-c2ccc(Cl)cc2Cl)c2cc(C(=O)NCC(O)CO)sc2n1 (stereo not drawn) [Example 128]
12,< 10,CCNC(=O)c1cc2c(-c3cc(OCCN4CCC(F)CC4)c(Cl)cc3Cl)nc(N)nc2s1 [Example 249]
13,< 10,CCOC(=O)c1cc2c(-c3cc(Cl)ccc3C)nc(N)nc2s1 [Example 178]
14,< 10,CCOC(=O)c1cc2c(-c3ccc(C)cc3Cl)nc(N)nc2s1 [Example 79]
15,< 10,CCOC(=O)c1cc2c(C(=O)c3ccccc3Cl)nc(N)nc2s1 [Example 302]
16,< 10,"CCOC(=O)c1cc2c(-c3ccc(O)cc3C)nc(N)nc2s1 [Example 184, 2-Amino-4-(4-hydroxy-2-methyl-phenyl)-thieno[2,3-d]pyrimidine-6-carboxylic acid ethyl ester]"
17,< 10,CCOC(=O)c1cc2c(C(=O)c3ccc(C)c(C)c3)nc(N)nc2s1 [Example 306]
18,> 10,CCOC(=O)c1cc2c(C(C#N)c3ccc(OC)cc3)nc(N)nc2s1 (stereo not drawn) [Example 318]
19,< 10,CCOC(=O)c1cc2c(-c3ccc(C#N)cc3C)nc(N)nc2s1 [Example 32]
20,< 10,CCOC(=O)c1cc2c(/C=C/c3cccc(C(F)(F)F)c3)nc(N)nc2s1 [Example 284]

row,IC50 [µM],SMILES
1,> 10,CCOC(=O)c1cc2c(-c3cccc(Cl)c3)nc(N)nc2s1 [Example 14]
2,< 10,CCOC(=O)c1cc2c(-c3ccc(C)cc3)nc(N)nc2s1 [Example 11]
3,< 10,C[C@H](NC(=O)c1cc2c(-c3ccc(Cl)cc3Cl)nc(N)nc2s1)c1ccccc1 [Example 139]
4,< 10,CCOC(=O)c1cc2c(-c3ccc(CC)cc3Cl)nc(N)nc2s1 [Example 175]
5,> 10,CCOC(=O)CSc1nc(N)nc2sc(C(=O)OCC)cc12 [Example 20]
6,> 10,CCOC(=O)c1cc2c(-c3ccc(OC(C)C)cc3)nc(N)nc2s1 [Example 5]
7,< 10,Nc1nc(-c2ccc(Cl)cc2Cl)c2cc(C(=O)NC3CCCC3)sc2n1 [Example 153]
8,> 10,CN(c1ccccc1)c1nc(N)nc2sc(C(N)=O)cc12 [Example 63]
9,< 10,NC(=O)c1ccc(NC(=O)c2cc3c(-c4ccc(Cl)cc4Cl)nc(N)nc3s2)cc1 [Example 110]
10,< 10,Nc1nc(-c2ccc(Cl)cc2Cl)c2cc(C(=O)NCCO)sc2n1 [Example 136]
11,< 10,CS(=O)(=O)c1ccc(CNC(=O)c2cc3c(-c4ccc(Cl)cc4Cl)nc(N)nc3s2)cc1 [Example 117]
12,< 10,CCNC(=O)c1cc2c(-c3cc(CNCc4ccco4)ccc3C)nc(N)nc2s1 [Example 210]
13,< 10,Cc1ccc(-c2nc(N)nc3sc(C(=O)NCCO)cc23)c(C)c1 [Example 82]
14,< 10,CCNC(=O)c1cc2c(-c3cc(CNCC(N)=O)ccc3C)nc(N)nc2s1 [Example 219]
15,> 10,CCOC(=O)c1cc2c(-c3cc(Cl)ccc3Cl)nc(N)nc2s1 [Example 106]
16,< 10,C=CCOc1ccc(-c2nc(N)nc3sc(C(=O)OCC)cc23)c(C)c1 [Example 187]
17,< 10,Nc1nc(-c2ccc(Cl)cc2Cl)c2cc(C(=O)Nc3cc[nH]n3)sc2n1 [Example 143]
18,< 10,CCCNC(=O)c1ccc(C)c(-c2nc(N)nc3sc(C(=O)NC4CC4)cc23)c1 [Example 183]
